Laboratory results as given in ChEMBL document CHEMBL1201862, “PubChem BioAssay data set” (2004).
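Cells were grown in 96-well plates and exposed to each compound for 48 hours at five concentrations; endpoints were interpolated linearly between bracketing concentrations, or set to the highest concentration if not reached. GI50 marks 50% less growth.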 Active and inactive are the calls of the source. No stated cut-off is given here; in the data, active = GI50 up to about 1.1 µM and inactive = higher.

Legend:
Test in all cases: NCI anticancer screen, dose series, 48 h
[1] = tested on: KM12
[2] = tested on: RPMI-8226
[3] = tested on: NCI-H226
[4] = tested on: PC-3
[5] = tested on: NCI-H522
[6] = tested on: K562
[7] = tested on: SF-268
[8] = tested on: T47D
[9] = tested on: CCRF-CEM
[10] = tested on: OVCAR-3
[11] = tested on: MDA-MB-435
[12] = tested on: A498
[13] = tested on: SN12C
[14] = tested on: NCI-H460
[15] = tested on: OVCAR-5
[16] = tested on: MDA-MB-231
[17] = tested on: 786-0
[18] = tested on: IGROV-1
[19] = tested on: EKVX

SMILES	GI50 [1]	GI50 [2]	GI50 [3]	GI50 [4]	GI50 [5]	GI50 [6]	GI50 [7]	GI50 [8]	GI50 [9]	GI50 [10]	GI50 [11]	GI50 [12]	GI50 [13]	GI50 [14]	GI50 [15]	GI50 [16]	GI50 [17]	GI50 [18]	GI50 [19]
c1ccc(-c2nnc(-c3ccccn3)c3c2C[C@@H]2C[C@@H]4Cc5c(-c6ccccn6)nnc(-c6ccccn6)c5[C@@H]4[C@H]32)nc1	51.2 µM (inactive)	44.7 µM (inactive)	24.2 µM (inactive)	41.5 µM (inactive)	96.6 µM (inactive)	18.3 µM (inactive)	35 µM (inactive)	38.6 µM (inactive)	30.3 µM (inactive)	85.9 µM (inactive)	50.6 µM (inactive)	2.39 µM (inactive)	48.8 µM (inactive)	27.5 µM (inactive)	61 µM (inactive)	> 100 µM (inactive)	33.7 µM (inactive)	58.5 µM (inactive)	18 µM (inactive)
COc1ccc(C2(CC(C)O)SCCCS2)cc1 (stereo not drawn)	> 100 µM (inactive)	> 100 µM (inactive)	> 100 µM (inactive)	92.7 µM (inactive)	> 100 µM (inactive)	> 100 µM (inactive)	> 100 µM (inactive)	> 100 µM (inactive)	63.1 µM (inactive)	> 100 µM (inactive)	> 100 µM (inactive)	> 100 µM (inactive)	> 100 µM (inactive)	> 100 µM (inactive)	> 100 µM (inactive)	> 100 µM (inactive)	> 100 µM (inactive)	> 100 µM (inactive)	> 100 µM (inactive)
NC1(c2cc3ccccc3s2)CCCC1	43.9 µM (inactive)	17.7 µM (inactive)	> 100 µM (inactive)	32 µM (inactive)	92.5 µM (inactive)	25.2 µM (inactive)	> 100 µM (inactive)	36.3 µM (inactive)	16.9 µM (inactive)	> 100 µM (inactive)	41 µM (inactive)	> 100 µM (inactive)	57.5 µM (inactive)	33.6 µM (inactive)	> 100 µM (inactive)	83.8 µM (inactive)	54.2 µM (inactive)	> 100 µM (inactive)	> 100 µM (inactive)
COc1cccc(-n2nnc3c(N)nc(N)nc32)c1	> 100 µM (inactive)	> 100 µM (inactive)	> 100 µM (inactive)	> 100 µM (inactive)	> 100 µM (inactive)	> 100 µM (inactive)	5.96 µM (inactive)	> 100 µM (inactive)	> 100 µM (inactive)	> 100 µM (inactive)	> 100 µM (inactive)	> 100 µM (inactive)	> 100 µM (inactive)	94.4 µM (inactive)	> 100 µM (inactive)	> 100 µM (inactive)	> 100 µM (inactive)	51.6 µM (inactive)	12.3 µM (inactive)
Nc1nc(Cl)c2ncn(Cc3ccc(CCl)cc3)c2n1	8.07 µM (inactive)	3.83 µM (inactive)	10.4 µM (inactive)	7.45 µM (inactive)	10.7 µM (inactive)	3.61 µM (inactive)	1.88 µM (inactive)	6.98 µM (inactive)	2.68 µM (inactive)	2.16 µM (inactive)	16.6 µM (inactive)	22 µM (inactive)	12.2 µM (inactive)	4.25 µM (inactive)	3.29 µM (inactive)	13.1 µM (inactive)	5.31 µM (inactive)	9.23 µM (inactive)	2.58 µM (inactive)
N#Cc1c(C#N)c(SSc2c(C#N)c(C#N)c(N)n2-c2ccc(F)cc2)n(-c2ccc(F)cc2)c1N	23.2 µM (inactive)	2.37 µM (inactive)	20.8 µM (inactive)	17.9 µM (inactive)	1.7 µM (inactive)	1.76 µM (inactive)	17.5 µM (inactive)	2.7 µM (inactive)	2.02 µM (inactive)	2.66 µM (inactive)	8.11 µM (inactive)	8.11 µM (inactive)	16.6 µM (inactive)	20.2 µM (inactive)	17.1 µM (inactive)	19.6 µM (inactive)	1.79 µM (inactive)	16.7 µM (inactive)	2.2 µM (inactive)
CN1N=C(c2ccncc2)OC1c1ccc(C(F)(F)F)cc1 (stereo not drawn)	> 100 µM (inactive)	> 100 µM (inactive)	39.1 µM (inactive)	> 100 µM (inactive)	> 100 µM (inactive)	> 100 µM (inactive)	> 100 µM (inactive)	0.495 µM (active)	> 100 µM (inactive)	> 100 µM (inactive)	> 100 µM (inactive)	> 100 µM (inactive)	> 100 µM (inactive)	> 100 µM (inactive)	> 100 µM (inactive)	63.5 µM (inactive)	98.4 µM (inactive)	> 100 µM (inactive)	44.6 µM (inactive)
